Data published in BindingDB's records for patent US20230348456 (Repare Therapeutics, 2023).

target: T1, Membrane-associated tyrosine- and threonine-specific cdc2-inhibitory kinase (Homo sapiens, UniProt Q99640); assay: Enzymatic Assay
T1 sequence (Q99640 whole entry): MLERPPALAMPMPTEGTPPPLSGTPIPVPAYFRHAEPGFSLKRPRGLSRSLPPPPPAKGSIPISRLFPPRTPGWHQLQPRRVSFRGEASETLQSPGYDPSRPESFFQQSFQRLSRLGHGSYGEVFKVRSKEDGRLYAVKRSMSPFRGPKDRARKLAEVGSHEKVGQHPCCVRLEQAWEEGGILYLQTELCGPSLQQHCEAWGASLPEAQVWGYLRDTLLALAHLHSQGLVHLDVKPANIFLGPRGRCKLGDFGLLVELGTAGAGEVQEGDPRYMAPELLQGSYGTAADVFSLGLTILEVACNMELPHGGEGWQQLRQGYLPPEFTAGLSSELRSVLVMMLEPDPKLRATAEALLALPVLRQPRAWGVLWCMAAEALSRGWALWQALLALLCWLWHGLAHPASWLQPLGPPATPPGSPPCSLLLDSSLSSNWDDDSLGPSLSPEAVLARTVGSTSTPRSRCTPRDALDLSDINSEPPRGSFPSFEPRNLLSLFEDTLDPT
Method: Detection of Myt1 kinase activity utilized a recombinant human Myt1 kinase assay measuring the hydrolysis of ATP using a commercially available ADP-Glo Assay (ADP-Glo Kinase Assay from Promega, 10 000 assays, #V9102). Briefly, 5 μL recombinant human Myt1 (full length PKMYT1 recombinant human protein expressed in insect cells from Thermo Fisher #A33387; 80% purity) was prepared in reaction buffer (70 mM HEPES, 3 mM MgCl2, 3 mM MnCl2, 50 μg/ml PEG 20000, 3 μM Na-orthovanadate, 1.2 mM DTT) and added to 384 well white polystyrene, flat bottom well, non-treated, microplate (Corning #3572). After this, 5 μL of compounds (diluted in reaction buffer to 0.5% DMSO) was added to the microplate and the plate was spun briefly and incubated at 22 C. for 15 minutes. Ultra-Pure Adenosine Triphosphate (ATP) solution (ADP-Glo kit from Promega) was diluted in reaction buffer and 5 μL was added to the microplate, spun down briefly and incubated for 60 minutes at 30 C. The final Myt1 enzyme concentration was 18 nM and the final ATP concentration was 10 μM. After the 60-minute incubation, 15 μL of ADP-Glo reagent was added and the plate was spun briefly and sealed and incubated in the dark for 40 minutes at 22 C. Following this, 30 μL of kinase detection reagent was added per well and the plate was spun briefly, sealed and incubated for 45-60 minutes at 22 C. in the dark. Luminescence was read using the Envision (250 ms integration). T

| SMILES | IC50 |
| --- | --- |
| Nc1c(-c2cccc3[nH]ncc23)cc(-c2cccc(OC3CCOCC3)c2)c2nc(-c3ccncc3)[nH]c(=O)c12 [US20230348456, Compound 65] | 4 nM |
| Nc1c(-c2cccc3[nH]ncc23)cc(-c2nccs2)c2nc(-c3ccc(CN4CCOCC4)cc3)[nH]c(=O)c12 [US20230348456, Compound 39] | 8 nM |
| Nc1c(-c2cccc3[nH]ncc23)cc(-n2cccn2)c2nc(-c3ccncc3)[nH]c(=O)c12 [US20230348456, Compound 77] | 4 nM |

More lines, in order of falling IC50, values ahead:

| IC50 | SMILES |
| --- | --- |
| 10 nM | Nc1c(-c2cccc3[nH]ncc23)cc(Br)c2nc(-c3ccc(N4CCC5(CC4)COC5)nc3)[nH]c(=O)c12 [US20230348456, Compound 34] |
| 4 nM | Nc1ccc(-c2nc3c(Br)cc(-c4cccc5[nH]ncc45)c(N)c3c(=O)[nH]2)cn1 [US20230348456, Compound 7] |
